Data reported in patent US20250195490A1, “ALPHA-METHYLENE AND AMINOMETHYL LACTONES AND LACTAMS FOR TREATMENT OF CLOSTRIDIOIDES DIFFICILE INFECTION (CDI)” (Purdue Research Foundation, priority 2022, published 2025).

Key:
E. faecalis (VRE) = test: microbe, parasite or virus in culture; type: cell-based, Enterococcus faecalis; details: aerobic, 37° C., at least 18 hours
Description: (§1) Method: The minimum inhibitory concentration (MIC) of the compounds and control drugs, linezolid (antibiotic), vancomycin (antibiotic), 5-fluorocytosine (5-FC, antifungal drug), and fluconazole (antifungal drug) was determined using the broth microdilution method according to the guidelines outlined by the Clinical and Laboratory Standards Institute (CLSI) against clinically relevant bacterial (methicillin-resistant Staphylococcus aureus (MRSA), vancomycin-resistant Enterococcus faecalis (VRE), vancomycin-resistant Enterococcus faecium (VRE), Clostridioides difficile and Escherichia coli) and fungal (Candida albicans) strains. A solution equivalent to 0.5 McFarland standard was prepared from each strain and diluted in cation-adjusted Mueller-Hinton broth (for S. aureus and E. coli), tryptone soy broth (for E. faecalis), or brain heart infusion broth (for E. faecium) to achieve a bacterial inoculum of about 5×10^5 CFU/mL. C. difficile strains were cultured in brain heart infusion broth supplemented with hemin and vitamin K. C. albicans was diluted in RPMI medium supplemented with 3-(N-morpholino) propanesulfonic acid to achieve a fungal concentration of about 1.5×10^3 CFU/mL. Compounds and control drugs were added in the first row of the 96-well plates and diluted with media containing bacteria (to achieve a concentration gradient ranging from 128 to 1 μg/mL). For MRSA, VRE, and E. coli strains, plates were then incubated aerobically at 37° C. for at least 18 hours. C. albicans was incubated aerobically at 37° C. for 24 hours. Plates containing C. difficile were incubated anaerobically at […] for 48 hours.

C. albicans = test: Broth microdilution against Candida albicans; type: cell-based; details: gradient 128 to 1 μg/mL, 24 hours
Description: as §1

Caco-2 cells = test: In vitro cytotoxicity (MTS assay) against Caco-2 cells; details: tested at 32, 64 and 128 μg/mL, two hours
Description: Percent viable mammalian cells (measured as average absorbance ratio (test agent relative to DMSO) for cytotoxicity analysis of the compounds (tested in triplicate) at 32, 64 and 128 μg/mL against Caco-2 cells using the MTS 3-(4,5-dimethylthiazol-2-yl)-5-(3-carboxymethoxyphenyl)-2-(4-sulfophenyl)-2H-tetrazolium) assay. Dimethyl sulfoxide (DMSO) was used as a negative control to determine a baseline measurement for the cytotoxic impact of each compound. The absorbance values represent an average of a minimum of three samples analyzed for each compound. Error bars represent standard deviation values for the absorbance values. A two-way ANOVA, with post hoc Dunnet's multiple comparisons test, determined statistical difference (denoted by the asterisk, *) (P<0.05) between the values obtained for each compound and DMSO (negative control, used as solvent for the compounds). […]
Method: Compounds were assayed (at concentrations of 32, 64 and 128 μg/mL) against a human colorectal (Caco-2) cell line to determine the potential toxic effect to mammalian cells in vitro. […] Absorbance readings (at OD490) were taken using a kinetic microplate reader (Molecular Devices, Sunnyvale, CA, USA). The quantity of viable cells after treatment with each compound was expressed as a percentage of the viability of DMSO-treated control cells (average of triplicate wells±standard deviation). […]

C. difficile ATCC 43255 = test: Antibiotic-induced C. difficile-associated diarrhea mouse model; type: in vivo, C57BL/6 mice; details: 10 mg/kg by gavage daily for 5 days; two mouse models (protocols A and B)
Description: Preliminary in vivo experiments were carried out in two mouse models of antibiotic-induced C. difficile-associated diarrhea and two recurrence models to ensure the feasibility of using this new class of antibiotic orally against C. difficile infection.
Groups of 12-weeks-old female C57BL/6 mice were sensitized to CDI with two different protocols. A—Mice were given antibiotic cocktail containing gentamicin (0.035 mg/mL), kanamycin (0.4 mg/ml), metronidazole (0.215 mg/mL), colistin (850 U/mL), and vancomycin (0.045 mg/mL) in drinking water for 5 days. Then mice were treated with clindamycin (10 mg/kg) two days after withdrawal of the antibiotic cocktail. One day after clindamycin treatment, mice were infected orally with 1.9×10^6 CFU spore suspension of C. difficile ATCC 43255 [32]. Two hours after infection, animals were divided into groups (n=10), and groups received either vehicle (sterile water), Compound 27 (10 mg/kg), or vancomycin (10 mg/kg) by gavage daily for 5 days. B— In the second protocol mice were sensitized to CDI with cefoperazone (1.5 mg/mL) in the drinking water for 10 days. Afterwards, mice were switched to regular water for 2 days, followed by injecting clindamycin (10 mg/kg) intraperitoneally. One day after clindamycin treatment, mice were infected and treated as group A above.

Compound	MIC E. faecalis (VRE) (E. faecalis (VRE)) [µg/mL]	activity against C. albicans (C. albicans)	concentration up to which non-toxic to Caco-2 cells (Caco-2 cells) [µg/mL]	protection (C. difficile ATCC 43255) [%]
COc1cc(C2OC(=O)C(CN3CCCCC3)C2c2ccccc2Br)ccc1OCc1ccccc1 (racemic) [Compound 27]	>128	inactive	128	100
C=C1C(=O)O[C@H](c2ccccc2O)[C@@H]1c1cccc(C#N)c1 (racemic) [Compound 50]	>128	inactive	32	–
CN[C@H](CC(C)C)C(=O)N[C@H]1C(=O)N[C@@H](CC(N)=O)C(=O)N[C@H]2C(=O)N[C@H]3C(=O)N[C@H](C(=O)N[C@H](C(=O)O)c4cc(O)cc(O)c4-c4cc3ccc4O)[C@H](O)c3ccc(c(Cl)c3)Oc3cc2cc(c3O[C@@H]2O[C@H](CO)[C@@H](O)[C@H](O)[C@H]2O[C@H]2C[C@](C)(N)[C@H](O)[C@H](C)O2)Oc2ccc(cc2Cl)[C@H]1O [Vancomycin, reference compound]	–	–	–	100
